Results from patent US20080275083A1, “2,3,4,9-TETRAHYDRO-1H-CARBAZOLES” (priority 2007, published 2008).

The compounds below were run against T1, human FSH receptor (Homo sapiens, UniProt P23945) (assay: HTRF assay for measuring cAMP in cells (FSH-antagonistic effect)). Settings: hFSHR clone 16 cells (CHO cells stably transfected with the human FSH receptor), in the presence of 1e-9 mol/l hFSH.
T1 construct: expressed in transfected cells; host or cells: CHO cells (hFSHR clone 16)
T1 sequence (P23945 18-695): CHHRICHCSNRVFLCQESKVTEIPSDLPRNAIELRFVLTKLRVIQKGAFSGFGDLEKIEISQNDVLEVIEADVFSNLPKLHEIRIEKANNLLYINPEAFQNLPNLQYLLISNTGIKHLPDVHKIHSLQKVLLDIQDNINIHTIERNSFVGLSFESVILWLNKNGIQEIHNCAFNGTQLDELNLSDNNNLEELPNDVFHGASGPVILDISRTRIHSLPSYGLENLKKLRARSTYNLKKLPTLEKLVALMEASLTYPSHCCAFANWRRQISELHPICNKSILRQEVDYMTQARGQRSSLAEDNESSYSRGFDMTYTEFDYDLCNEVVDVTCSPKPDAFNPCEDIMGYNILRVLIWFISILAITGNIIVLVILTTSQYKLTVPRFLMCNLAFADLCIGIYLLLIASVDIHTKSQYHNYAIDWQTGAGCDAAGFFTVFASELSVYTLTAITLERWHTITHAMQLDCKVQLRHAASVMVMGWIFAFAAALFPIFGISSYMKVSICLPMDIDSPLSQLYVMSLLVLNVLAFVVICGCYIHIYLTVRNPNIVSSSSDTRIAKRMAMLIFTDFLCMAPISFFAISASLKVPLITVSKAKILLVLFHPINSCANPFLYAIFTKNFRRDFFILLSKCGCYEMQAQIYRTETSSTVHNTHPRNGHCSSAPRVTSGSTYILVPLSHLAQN
Type: cell-based
Protocol: HTRF Assay for Measuring cAMP in Cells
The method is based on a competitive immunoassay between native cAMP, which has been produced by the cells, and cAMP which is labelled with XL665. The tracer binding was visualized by a monoclonal antibody, anti-cAMP labelled with cryptate [HTRF=homogeneous time-resolved fluorescence].
The specific signal is inversely proportional to the cAMP concentration of the samples employed.
The 665 nm/620 nm fluorescence ratio was evaluated.
The following material was used: 96-well plates for the tissue culture, 96-well plates with black edge and black base (e.g. Fluotrac 600 from Greiner), 96-well plates for the substance dilutions of polypropylene and cAMP Femtomolar (4000 wells Kit, CIS Bio International #62AM1PEC).
The following reagents were used: BSA (bovine serum albumin) Fraction V protease-free, IBMX (3-isobutyl-1-methylxanthine), hFSH (human follicle stimulating hormone), Triton X-100 analytical grade, potassium fluoride analytical grade, G 418 (Geneticin) and Accutase.
Buffer 1 (washing and testing buffer) contained PBS, 1 mM CaCl2, 1 mM MgCl2, 0.2% glucose; 0.1% BSA, 1 mM IBMX. Buffer 2 (2× lysis buffer) contained 1% Triton X-100 in PBS (without CaCl2 and MgCl2). Buffer 3 (assay buffer) contained 50 mM potassium phosphate buffer (pH 7.0); 800 mM potassium fluoride; 0.2% BSA (always added fresh).
On day 1, the cells were seeded in 96-well plates (3×10^4 cells per well hFSHR clone 16 cells (CHO cells stably transfected with the human FSH receptor in 150 μl of medium). The next day, test substance dilutions were made up. For this purpose, all the substances were diluted in ice-cold buffer 1 (with or without hFSH), and the substance dilutions were placed on ice until applied to the cells.
The cell supernatant was then aspirated off, and the cells were washed 2× with 200 μl of buffer 1. The cells were treated with 60 μl of the appropriate substance concentrations at 37° C. for 2 h. The cells were then lysed with 60 μl of buffer 2 (put onto the supernatant) (on a plate shaker at RT for 30 min).
The test conjugates (XL-665 and anti-cAMP cryptate) were diluted in buffer 3 in accordance with the manufacturers' information. The actual mixture for measurement was pipetted into a black 96-well plate (in each case 15 μl of the cell lysate diluted with 35 μl of buffer 1; firstly 25 μl of XL-665 conjugate were pipetted and, after 10 min, 25 μl of the anti-cAMP cryptate were added). This is followed by incubation at RT for 90 minutes. The measurement was carried out in a PheraStar (BMG).
Dose-effect curve (hFSH) for the human receptor: 1e-8, 3e-9, 1e-9, 3e-10, 1e-10, 3e-11, 1e-11, 3e-12 mol/l.
The test substances were employed in suitable dilutions in the absence (test for agonism) and in the presence of 1e-9 mol/l hFSH.
The values of the well ratio were averaged and then entered directly in SigmaPlot versus the concentrations. The maximum and minimum values were determined for each plate, and half the difference is to be regarded as IC50.

Structure (SMILES)	IC50
COc1ccc2nc(-c3ccccc3)cc(C(=O)NC3(CO)CCc4[nH]c5ccccc5c4C3)c2c1 (stereo not drawn) [Example 4, 6-Methoxy-2-phenyl-quinoline-4-carboxylic acid (3-hydroxymethyl-2,3,4,9-tetrahydro-1H-carbazol-3-yl)-amide]	2000 nM
COc1ccc(-c2ccc(OC(C)C)c(C(=O)NC3(CO)CCc4[nH]c5ccc(F)cc5c4C3)c2)cc1OC (stereo not drawn) [Example 18, 4-Isopropoxy-3′,4′-dimethoxy-biphenyl-3-carboxylic acid (6-fluoro-3-hydroxymethyl-2,3,4,9-tetrahydro-1H-carbazol-3-yl)-amide]	200 nM
CC(C)Oc1ccc(-c2cc3ccccc3o2)cc1C(=O)NC1(CO)CCc2[nH]c3ccccc3c2C1 (stereo not drawn) [Example 38, 5-Benzofuran-2-yl-N-(3-hydroxymethyl-2,3,4,9-tetrahydro-1H-carbazol-3-yl)-2-isopropoxy-benzamide]	600 nM
CC(C)Oc1ccc(-c2cc3ccccc3o2)cc1C(=O)NC1(CO)CCc2[nH]c3ccc(C(=O)O)cc3c2C1 (stereo not drawn) [Example 39, 6-(5-Benzofuran-2-yl-2-isopropoxy-benzoylamino)-6-hydroxymethyl-6,7,8,9-tetrahydro-5H-carbazole-3-carboxylic acid]	6000 nM
CC(C)Oc1ccc(-c2cc3ccccc3o2)cc1C(=O)NC1(CO)CCc2[nH]c3ccc(F)cc3c2C1 (stereo not drawn) [Example 42, 5-Benzofuran-2-yl-N-(6-fluoro-3-hydroxymethyl-2,3,4,9-tetrahydro-1H-carbazol-3-yl)-2-isopropoxy-benzamide]	350 nM
Cc1cccc2c3c([nH]c12)CCC(CO)(NC(=O)c1cc(-c2cc4ccccc4o2)ccc1OC(C)C)C3 (stereo not drawn) [Example 46, 5-Benzofuran-2-yl-N-(3-hydroxymethyl-8-methyl-2,3,4,9-tetrahydro-1H-carbazol-3-yl)-2-isopropoxy-benzamide]	2500 nM
